Source: ChEMBL document CHEMBL4308873, “Synthesis and biological evaluation of Ginsenoside Compound K analogues as a novel class of anti-asthmatic agents” (2019)

Tests used:
Type in all cases: functional
Mus musculus [1] = experiment: Anti-asthmatic activity in ovalbumin-induced asthmatic BALB/c mouse model assessed as IgE level in plasma at 20 mg/kg, po co-administered with ovalbumin from day 21 to 28 of experiment period by ELISA (reference value: 2544.05 +/- 229.07 ng/ml)
Mus musculus [2] = experiment: (§1) Anti-asthmatic activity in ovalbumin-induced asthmatic BALB/c mouse model assessed as 6.25 mg/ml methacholine-induced airway resistance at 20 mg/kg, po co-administered with ovalbumin from day 21 to 28 of experiment period measured post last dose by plethysmography (reference value: 2.44 +/- 0.87 cmH2O/ml)
Mus musculus [3] = experiment: as §1, with “12.5” for “6.25”, “6.03” for “2.44”, “1.02” for “0.87”
Mus musculus [4] = experiment: as §1, with “25” for “6.25”, “14.03” for “2.44”, “1.15” for “0.87”
Mus musculus [5] = experiment: as §1, with “50” for “6.25”, “64.33” for “2.44”, “3.41” for “0.87”
Mus musculus [6] = experiment: as §1, with “100” for “6.25”, “84.5” for “2.44”, “2.41” for “0.87”
Mus musculus [7] = experiment: Anti-asthmatic activity in ovalbumin-induced asthmatic BALB/c mouse model assessed as IgE level in plasma at 0.6 mg/kg, po co-administered with ovalbumin from day 21 to 28 of experiment period by ELISA (reference value: 2544.05 +/- 229.07 ng/ml)
Mus musculus [8] = experiment: as §1, with “0.6” for “20”
Mus musculus [9] = experiment: as §1, with “12.5” for “6.25”, “0.6” for “20”, “6.03” for “2.44”, “1.02” for “0.87”
Mus musculus [10] = experiment: as §1, with “25” for “6.25”, “0.6” for “20”, “14.03” for “2.44”, “1.15” for “0.87”
Mus musculus [11] = experiment: as §1, with “50” for “6.25”, “0.6” for “20”, “64.33” for “2.44”, “3.41” for “0.87”
Mus musculus [12] = experiment: as §1, with “100” for “6.25”, “0.6” for “20”, “84.5” for “2.44”, “2.41” for “0.87”

Compound | Activity (Mus musculus [1]) [ng/mL] | Activity (Mus musculus [2]) [cmH2O/ml] | Activity (Mus musculus [3]) [cmH2O/ml] | Activity (Mus musculus [4]) [cmH2O/ml] | Activity (Mus musculus [5]) [cmH2O/ml] | Activity (Mus musculus [6]) [cmH2O/ml] | further results
CC(C)=CCC[C@](C)(O[C@@H]1O[C@H](CO)[C@@H](O)[C@H](O)[C@H]1O)[C@H]1CC[C@]2(C)[C@@H]1C(=O)C[C@@H]1[C@@]3(C)CC/C(=N\O)C(C)(C)[C@@H]3CC[C@]12C | 1968.31 |  |  |  |  |  | 
CO/N=C1\CC[C@]2(C)[C@H]3CC(=O)[C@@H]4[C@@H]([C@](C)(CCC=C(C)C)O[C@@H]5O[C@H](CO)[C@@H](O)[C@H](O)[C@H]5O)CC[C@@]4(C)[C@]3(C)CC[C@H]2C1(C)C | 2023.54 |  |  |  |  |  | 
CC(C)=CCC[C@](C)(O[C@@H]1OC[C@@H](O)[C@H](O)[C@H]1O)[C@H]1CC[C@]2(C)[C@@H]1C(=O)C[C@@H]1[C@@]3(C)CC[C@H](O)C(C)(C)[C@@H]3CC[C@]12C | 2439.3 |  |  |  |  |  | 
CC(C)=CCC[C@](C)(O[C@@H]1O[C@H](CO)[C@@H](O)[C@H](O)[C@H]1O)[C@H]1CC[C@]2(C)[C@@H]1C(=O)C[C@@H]1[C@@]3(C)CCC(=O)C(C)(C)[C@@H]3CC[C@]12C | 2439.3 |  |  |  |  |  | 
CC(=O)O[C@H]1CC[C@]2(C)[C@H]3CC(=O)[C@@H]4[C@@H]([C@](C)(CCC=C(C)C)O[C@@H]5O[C@H](CO)[C@@H](O)[C@H](O)[C@H]5O)CC[C@@]4(C)[C@]3(C)CC[C@H]2C1(C)C | 3224.5 |  |  |  |  |  | 
CC(C)CCC[C@](C)(O[C@@H]1O[C@H](CO)[C@@H](O)[C@H](O)[C@H]1O)[C@H]1CC[C@]2(C)[C@@H]1C(=O)C[C@@H]1[C@@]3(C)CC[C@H](O)C(C)(C)[C@@H]3CC[C@]12C | 1976.31 |  |  |  |  |  | 
CC(C)=CCC[C@](C)(O[C@@H]1O[C@H](CO)[C@@H](O)[C@H](O)[C@H]1O)[C@H]1CC[C@]2(C)[C@@H]1[C@H](O)C[C@@H]1[C@@]3(C)CC[C@H](O)C(C)(C)[C@@H]3CC[C@]12C | 1501.85 | 2.47 | 4.14 | 4.79 | 5.04 | 6.21 | 
CC(C)=CCC[C@](C)(O[C@@H]1O[C@H](CO)[C@@H](O)[C@H](O)[C@H]1O)[C@H]1CC[C@]2(C)[C@@H]1C(=O)C[C@@H]1[C@@]3(C)CC[C@H](O)C(C)(C)[C@@H]3CC[C@]12C | 1237.11 | 2.18 | 3.13 | 4.65 | 5.9 | 6.79 | 
CC(C)=CCC[C@](C)(O[C@@H]1O[C@H](CO)[C@@H](O)[C@H](O)[C@@H]1O)[C@H]1CC[C@]2(C)[C@@H]1C(=O)C[C@@H]1[C@@]3(C)CC[C@H](O)C(C)(C)[C@@H]3CC[C@]12C | 1136.96 | 2.83 | 3.54 | 3.58 | 4.94 | 5.97 | 
CC(C)=CCC[C@](C)(O[C@@H]1O[C@H](CO)[C@@H](O)[C@H](O)[C@H]1O)[C@H]1CC[C@]2(C)[C@@H]1C(=O)C[C@@H]1[C@@]3(C)CC=CC(C)(C)[C@@H]3CC[C@]12C | 1191.08 | 2.86 | 3.24 | 4.89 | 5.61 | 5.76 | 
CC(C)=CCC[C@](C)(O[C@@H]1O[C@H](CO)[C@@H](O)[C@H](O)[C@H]1O)[C@H]1CC[C@]2(C)[C@@H]1/C(=N/O)C[C@@H]1[C@@]3(C)CC/C(=N\O)C(C)(C)[C@@H]3CC[C@]12C | 1258.27 | 3.4 | 5.06 | 5.72 | 4.93 | 5.73 | 
CC(C)=CCC[C@](C)(O[C@H]1O[C@@H](C)[C@H](O)[C@@H](O)[C@H]1O)[C@H]1CC[C@]2(C)[C@@H]1C(=O)C[C@@H]1[C@@]3(C)CC[C@H](O)C(C)(C)[C@@H]3CC[C@]12C | 2706.85 |  |  |  |  |  | 
CC(=O)OCC(=O)[C@@]1(O)[C@H](C)C[C@H]2[C@@H]3CCC4=CC(=O)C=C[C@]4(C)[C@@]3(F)[C@@H](O)C[C@@]21C [DEXAMETHASONE ACETATE] |  |  |  |  |  |  | Activity (Mus musculus [7]): 1131.05 ng/mL; Activity (Mus musculus [8]): 2.89 cmH2O/ml; Activity (Mus musculus [9]): 3.09 cmH2O/ml; Activity (Mus musculus [10]): 3.36 cmH2O/ml; Activity (Mus musculus [11]): 3.04 cmH2O/ml; Activity (Mus musculus [12]): 3.06 cmH2O/ml
CC(C)=CCC[C@](C)(O[C@@H]1O[C@H](CO)[C@H](O)[C@H](O)[C@H]1O)[C@H]1CC[C@]2(C)[C@@H]1C(=O)C[C@@H]1[C@@]3(C)CC[C@H](O)C(C)(C)[C@@H]3CC[C@]12C | 975.82 | 2.04 | 2.78 | 3.28 | 4.81 | 6.35 | 
CC(C)(O)CCC[C@](C)(O[C@@H]1O[C@H](CO)[C@@H](O)[C@H](O)[C@H]1O)[C@H]1CC[C@]2(C)[C@@H]1C(=O)C[C@@H]1[C@@]3(C)CC[C@H](O)C(C)(C)[C@@H]3CC[C@]12C | 2027.95 |  |  |  |  |  | 
CO[C@H]1CC[C@]2(C)[C@H]3CC(=O)[C@@H]4[C@@H]([C@](C)(CCC=C(C)C)O[C@@H]5O[C@H](CO)[C@@H](O)[C@H](O)[C@H]5O)CC[C@@]4(C)[C@]3(C)CC[C@H]2C1(C)C | 3593.38 |  |  |  |  |  | 
